The source made the active and inactive calls. No rule for the calls is given here.
Legend:
[1] = system: Saccharomyces cerevisiae growth inhibition, permissive control; assay: yeast lifespan-shortening chemical project counter-assay, dose-response inhibition of growth under permissive conditions (AID 850);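 also: growth read as optical density after one day of incubation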
[2] = as above; settings: Saccharomyces cerevisiae growth inhibition, permissive control, measured here: maximum growth inhibition, stronger effect = higher value

| SMILES | IC50 [1] | inhibition ([2]; at 50 µM) [%] | other results |
| --- | --- | --- | --- |
| COC(=O)c1ccc(CSc2ccc3nnc(-c4cccc(F)c4)n3n2)o1 | > 100 µM (inactive) | – | inhibition ([2]; at 6.25 µM): 17.7% |
| Cc1ccc(-c2nn(C(C)(C)C)c3ncnc(N)c23)cc1 | 0.458 µM | 84.2 | – |
| COc1cccc2sc(Nc3nc(-c4ccccn4)cs3)nc12 | 20 µM | 77.8 | – |
| C=C(C)COc1ccc(-c2[nH]ncc2-c2ccccc2)c(O)c1 | 38.6 µM | 86.8 | – |
| CCCCOC(=O)n1c(=S)oc2cc(Cl)ccc21 | 14.5 µM | 99.8 | – |
| COc1ccc2c(c1)[nH]c1c(Cl)ncnc12 | > 100 µM (inactive) | – | inhibition ([2]; at 0.195 µM): 21.3% |
| N#C/C(=C\c1ccc([N+](=O)[O-])o1)c1nc2ccccc2[nH]1 | > 100 µM (inactive) | – | inhibition ([2]; at 6.25 µM): 21.4% |
| O=C1C(=O)c2c(C(=O)c3ccccc3)coc2-c2ccccc21 | 10.3 µM | 99.6 | – |
| CC1=C(C)/C(=N\OS(=O)(=O)c2ccc(C)cc2)C=CC1=O | 8.79 µM | – | inhibition ([2]; at 25 µM): 99.2% |
| Cc1cc(C)c2c(=O)n(CC(=O)N3CCC(Cc4ccccc4)CC3)sc2n1 | > 100 µM (inactive) | – | inhibition ([2]; at 0.391 µM): 6.81% |
| Cc1cccc(Nc2nc(-c3ccccn3)cs2)n1 | 13.3 µM | – | inhibition ([2]; at 25 µM): 63.1% |
| O=C(COc1ccc(Cl)cc1)NC1=NN(c2ccccc2)C(=O)C1 | > 100 µM (inactive) | – | inhibition ([2]; at 6.25 µM): 14.6% |
| Cn1c(N2CCOCC2)c(/C=N/OC(=O)c2ccc(F)cc2)c2ccccc21 | > 100 µM (inactive) | 19.1 | – |
| Cc1oc(-c2cccs2)nc1CS(=O)CC(=O)NC1CCCCCC1 (configuration not stated) | > 100 µM (inactive) | – | inhibition ([2]; at 6.25 µM): 18.9% |
| C/C(=N\Nc1nc2c(s1)CCCC2)c1ccccc1 | 28.2 µM | 99.1 | – |
| Cc1ccc(O)c(-c2cc(-c3ccccc3C)[nH]n2)c1 | 44.7 µM | 56.5 | – |
| CCC(=O)NC(c1ccc(C)cc1)c1cc([N+](=O)[O-])c2cccnc2c1O (configuration not stated) | 43.5 µM | 60.6 | – |
| CCN1CCN(C(=O)C(NS(=O)(=O)c2ccc3nc(C)sc3c2)C(C)C)CC1 (configuration not stated) | > 100 µM (inactive) | – | inhibition ([2]; at 0.098 µM): 16.9% |
| CCn1c2ccc(C)cc2c2nc3cc(C(=O)O)ccc3nc21 | 23.9 µM | 75 | – |
| Nc1ccc(SC(F)(F)F)cc1C(=O)c1ccccc1 | > 100 µM (inactive) | – | inhibition ([2]; at 0.391 µM): 14.9% |
| C/C(=N\Nc1ccc(Cl)c(Cl)c1)c1ccc(-n2ccnc2)cc1 | 26.7 µM | 96.7 | – |

| SMILES | IC50 [1] | inhibition ([2]; at 50 µM) [%] | other results |
| --- | --- | --- | --- |
| CC(=O)NC(c1cccs1)c1cc([N+](=O)[O-])c2cccnc2c1O (configuration not stated) | > 100 µM (inactive) | 17.1 | – |
| Oc1c(I)cc(Cl)c2cccnc12 | 16.7 µM | 98 | – |
| Oc1c(Br)cc(Br)cc1C=Nc1ccc2c(c1)OCO2 | 36.5 µM | 86 | – |
| COc1ccc(OCc2nnc3n2N=C(c2ccc(OC)cc2)CS3)cc1 | > 100 µM (inactive) | – | inhibition ([2]; at 0.781 µM): 20.9% |
| CCOC(=O)C1C(C)N=C2SCC(=O)N2C1c1cccc(Br)c1 (configuration not stated) | > 100 µM (inactive) | – | inhibition ([2]; at 12.5 µM): 12.2% |
| COc1ccccc1N1CCN(C(CNC(=O)c2ccco2)c2cccnc2)CC1 (configuration not stated) | > 100 µM (inactive) | 18.3 | – |
| O=C(Nc1ccc(Cl)cc1)ON=C1CCCC1 | 7.46 µM | – | inhibition ([2]; at 25 µM): 99.4% |
| Clc1ccc(COC(Cn2ccnc2)c2ccc(Cl)cc2Cl)cc1 (configuration not stated) | 0.705 µM | 100 | – |
| CCc1cccc(CC)c1NC(=S)NCc1ccc2[nH]c(C)cc2c1 | > 100 µM (inactive) | 13.8 | – |
| Cc1ccc(C(NC(=O)C(C)C)c2cc([N+](=O)[O-])c3cccnc3c2O)cc1 (configuration not stated) | 28.8 µM | 90.4 | – |
| COCCN1CSC(=S)N(Cc2ccco2)C1 | 34.5 µM | 64.7 | – |
| Cn1c(=O)c(C(=O)Nc2ncccn2)c(O)c2ccccc21 | 49.9 µM | 56.6 | – |
| CCOC(=O)C(=NCCCN(C)C)NNc1ccc(Br)cc1 | 5.8 µM | 97.4 | – |
| Cc1nn2c(-c3ccco3)nnc2c2ccccc12 | > 100 µM (inactive) | – | inhibition ([2]; at 25 µM): 14.3% |
| Cc1cc(O)c(/C=N/Nc2ccc(Cl)cc2)c(=O)o1 | 3.93 µM | – | inhibition ([2]; at 25 µM): 98.2% |
| S=C(NCc1ccc(Cl)cc1Cl)NC1CCCCC1 | > 100 µM (inactive) | 22.8 | – |
| Clc1ccc(N/N=C/c2ccncc2)cc1Cl | > 100 µM (inactive) | 21.4 | – |
| O=C(C1=C(O)/C(=C/c2ccc(O)cc2)CCC1)C(F)(F)F | > 100 µM (inactive) | – | inhibition ([2]; at 0.195 µM): 7.72% |
| CC(C)(C)n1nc(-c2ccc(Cl)cc2)c2c(N)ncnc21 | 1.1 µM | 80.7 | – |
| Cc1ccc(NC(=O)CSC2=C(C#N)C(c3ccc4c(c3)OCO4)C3=C(CCCC3=O)N2)c(C)c1 (configuration not stated) | > 100 µM (inactive) | – | inhibition ([2]; at 0.195 µM): 8.26% |
| Oc1ccc(-c2csc(-c3ccccc3)n2)cc1O | 21.9 µM | 99.8 | – |

| SMILES | IC50 [1] | inhibition ([2]; at 50 µM) [%] | other results |
| --- | --- | --- | --- |
| Oc1ccc(Cl)cc1Cc1cc(Cl)ccc1O | 25.8 µM | 99 | – |
| O=[N+]([O-])c1cccc(/C=N/n2cnnc2)c1O | 21 µM | 76.8 | – |
| Fc1ccc(N/N=C2/CC(c3ccccc3)Oc3ccccc32)c(F)c1 (configuration not stated) | 25.9 µM | 95.9 | – |
| CC(C)(CNC(=S)NCCc1ccccc1)CNC(=S)NCCc1ccccc1 | > 100 µM (inactive) | – | inhibition ([2]; at 0.391 µM): 23.5% |
| CCCCc1ccc(NC(=S)Nc2ccc(Nc3ccc(OC)cc3)cc2)cc1 | > 100 µM (inactive) | 16.8 | – |
| CCCCCCOC(=O)Sc1nc2ccccc2o1 | 11.7 µM | 99 | – |
| CC1=NOC(=O)/C1=C\c1ccc(-c2ccc(Cl)cc2Cl)o1 | 32.3 µM | 80.5 | – |
| COc1ccc(N)c2c1C(=O)c1ccccc1C2=O | > 100 µM (inactive) | – | inhibition ([2]; at 25 µM): 22.5% |
| Cc1cc(C(=O)N/N=C/c2cccc([N+](=O)[O-])c2O)n[nH]1 | > 100 µM (inactive) | – | inhibition ([2]; at 6.25 µM): 19.4% |
| O=C1c2ccccc2-c2nc3ccccc3nc21 | > 100 µM (inactive) | 27.3 | – |
| Cc1ccc(NC(=S)Nc2ccc(Cl)c(Cl)c2)c(OC(F)F)c1 | 24.8 µM | 76 | – |
| CCOC(=O)c1ccc(-n2[nH]c(-c3ccccc3)cc2=O)cc1 | 47.7 µM | – | inhibition ([2]; at 12.5 µM): 47.7% |
| Cc1c(N=Cc2cc(Br)cc(Br)c2O)cccc1C(=O)O | 6.96 µM | 99 | – |
| Cc1ccc2[nH]c3c(c2c1)CCc1cn[nH]c1-3 | 14.7 µM | 98.6 | – |
| COc1ccc2c(c1)S/C(=C\C(=O)c1ccncc1)N2C | 6.24 µM | 92.6 | – |
| CCCn1c(C)cc(C(=O)COC(=O)c2ccc[nH]c2=O)c1C | > 100 µM (inactive) | 17.4 | – |
| COc1ccc(-c2nnc3sc(C(C)N4C(=O)c5ccccc5C4=O)nn23)cc1 (configuration not stated) | > 100 µM (inactive) | – | inhibition ([2]; at 6.25 µM): 14% |
| O=C(O)c1ccc(N(c2ccccc2)c2ccccc2)cc1 | > 100 µM (inactive) | – | inhibition ([2]; at 0.195 µM): 10.2% |
| COc1cc2c(cc1OC)CN(C(=O)CSc1nnc3scc(-c4ccccc4)n13)CC2 | > 100 µM (inactive) | – | inhibition ([2]; at 0.781 µM): 17.1% |
| O=C(NNC(=S)NC(=O)C12CC3CC(CC(C3)C1)C2)c1ccncc1 | 13.4 µM | 94.8 | – |
| Cc1cccc(C(=O)Oc2csc(=S)n2C(=O)c2cccc(C)c2)c1 | 47.8 µM | 55.6 | – |

| SMILES | IC50 [1] | inhibition ([2]; at 50 µM) [%] | other results |
| --- | --- | --- | --- |
| C=CCc1c(C)c(C#N)c2nc3ccccc3n2c1NCCN(C)C | 12.5 µM | 98.6 | – |
| CCOC(=O)c1c(N)sc2c(OC)c(Br)ccc12 | > 100 µM (inactive) | – | inhibition ([2]; at 3.125 µM): 24.4% |
| CC(NC(=O)Nc1ccc(Cl)cc1)C(c1cccs1)N1CCOCC1 (configuration not stated) | > 100 µM (inactive) | – | inhibition ([2]; at 0.781 µM): 8.7% |
| CCSc1nnc(NC(=O)c2ccccn2)s1 | 12.7 µM | 97.8 | – |
| Cc1ccc(-c2nn3c(C)nnc3s2)cc1NC(=O)c1ccc(OC(C)C)cc1 | > 100 µM (inactive) | – | inhibition ([2]; at 0.098 µM): 17.3% |
| O=[N+]([O-])c1cc(CN2CCCC2)c2cccnc2c1O | > 100 µM (inactive) | 21 | – |
| CCOC(=O)N1CCN(C(=O)Cn2nc(C)c3sc4ccccc4c3c2=O)CC1 | > 100 µM (inactive) | – | inhibition ([2]; at 25 µM): 12.1% |
| Clc1cc2nc3ccccn3c2cc1Cl | > 100 µM (inactive) | 16 | – |
| COC1=C(N)C(=O)c2nc(-c3nc(C(=O)O)c(C)c(-c4ccc(OC)c(OC)c4O)c3N)ccc2C1=O | 0.463 µM | 98.7 | – |
| CC(C)(C)n1nc(-c2ccc(F)cc2)c2c(N)ncnc21 | < 0.098 µM | – | inhibition ([2]; at 25 µM): 86.7% |
| O=C(Nc1cccc(N=Cc2cc(Br)cc(Br)c2O)c1)c1ccco1 | 11.1 µM | 100 | – |
| NNC(=O)c1cccc(COc2ccc3c(c2)CCC3)c1 | 33.3 µM | 71 | – |
| N#CSCC(=O)c1cccc2ccccc12 | > 100 µM (inactive) | – | inhibition ([2]; at 12.5 µM): 26.9% |
| Cc1ccccc1C(=O)NNC(=S)NC(=O)COc1ccccc1 | 26.5 µM | 73.9 | – |
| CCSc1nc2ccccc2n1S(=O)(=O)c1ccccc1 | > 100 µM (inactive) | – | inhibition ([2]; at 3.125 µM): 26.4% |
| Oc1ccc(/C=C/c2nc(-c3ccccc3O)n(-c3ccccc3)n2)cc1 | 47.1 µM | 54.3 | – |
| CN(C)CCNC=C(C(=O)Nc1ccc(Cl)cc1Cl)C(=O)Nc1ccc(Cl)cc1Cl | 18.6 µM | – | inhibition ([2]; at 25 µM): 101% |
| Oc1c(CN2CCN(c3ccc(F)cc3)CC2)cc(Cl)c2cccnc12 | 12.2 µM | 100 | – |

Reference: PubChem BioAssay AID850 (SRMLSC, 2007)
